Results: patent US20080280974A1, “Spiro compounds for treatment of inflammatory disorders” (priority 2007, published 2008)

Legend:
[1] = test system: IL-8 secreted by human pulmonary artery endothelial cells (HPAEC); assay: In vitro IL-8 assay: TNF-alpha-stimulated IL-8 secretion by HPAEC, ELISA; assay type: cell-based; details: Endothelial cell, 10 microM compound, 20 hrs preincubation, then 2 ng/ml TNF-alpha for 4 hrs
Procedure: (§1) In Vitro IL-6 and IL-8 Assays
(§2) Compounds at dosing concentrations (with 0.2% DMSO vehicle) were incubated in EGM2MV cell media at 37° C. for overnight, added to 96-well plates seeded with confluent human pulmonary artery endothelial cells (HPAEC) for 20 hrs at 37° C., and then replaced with fresh dosing media containing 2 ng/ml tumor necrosis factor alpha for additional 4 hrs at 37° C. Afterwards, media was removed and used in ELISA assay to quantify the amount of IL-6 and IL-8 secreted by the cells using R&D Systems Duoset ELISA kits.

[2] = test system: Balb/CJ mice, ovalbumin-sensitized and challenged; assay: Mouse model of asthma: methacholine-induced airway reactivity (Penh) in ovalbumin-sensitized mice; assay type: in vivo; details: po, 768 h, 50 mg/kg p.o., days 26-32, % inhibition of the PenH vs McH dose AUC compared with vehicle control, day 32, read-out: Reduction of Penh AUC at 50 mg/kg p.o.
Procedure: Protocol for Testing Compounds in a Mouse Model of Asthma
Male 5-6 week old Balb/CJ mice were obtained from Jackson Laboratories (Bar Harbor, Me.). All experimental animals were used in accordance to Institutional Animal Care and Use Committee of AtheroGenics, Inc. Mice were sensitized by administering an intraperitoneal injection of 20 μg of ovalbumin (Calbiochem, La Jolla, Calif.) adsorbed in 2 mg of alum (Imject Alum; Pierce, Rockford, Ill.) on day 0 and 14. A group of mice received saline and served as negative control animals. The mice were challenged by aerosol exposure to ovalbumin (1% [wt/vol]) for 25 minutes on 3 consecutive days (days 28, 29, and 30) in a plexiglas exposure chamber coupled to an Aeroneb nebulizer (Buxco Electronics, Wilmington, N.C.). Experimental compounds were dissolved in Glycofurol/PEG 300/Tween (35%/55%/10%) (Sigma-aldrich; Milwaukee, Wis.). Animals were dosed orally with either test compound or vehicle (6 ml/kg dosing volume) on days 26-32 of study. Compound or vehicle was administered 2 hour before the aerosol challenge on days 28, 29, and 30 and 1 hour before airway reactivity measurement on day 32.
Methacholine-induced airway reactivity was assessed on day 32. Methacholine was administered in increasing concentrations ([…], 1.5, 3, 6, 12, 25, and 50 mg/ml) to unrestrained mice. Increases in airway resistance to Methacholine were determined as enhanced pause, (Penh) values, during and after the exposure (6-minute total analysis time). Mice were then humanely euthanized with an overdose of ketamine/xylazine and plasma samples collected for determination of drug levels. The data is presented as the % inhibition of the PenH vs McH dose AUC compared with the vehicle control.
Data analysis was conducting using the software package, JMP (SAS Institute Inc; Cary, N.C.). The Dunnett's multiple comparison test was used to compare treatment group means to the vehicle control group. P values of less than 0.05 were considered statistically significant. The data (Table 1) are presented as the % inhibition of the PenH vs McH dose AUC compared with the vehicle control.

[3] = test system: IL-6 secreted by human pulmonary artery endothelial cells (HPAEC); assay: In vitro IL-6 assay: TNF-alpha-stimulated IL-6 secretion by HPAEC, ELISA; assay type: cell-based; details: Endothelial cell, 10 microM compound, 20 hrs preincubation, then 2 ng/ml TNF-alpha for 4 hrs
Procedure: as §1, §2

Compound | melting point | inhibition at 10 µM [1] | inhibition in vivo at 50 mg/kg [2] | inhibition at 10 µM [3]
Cc1cc2c(cc1O)C(C)(C)CC1(CC(C)(C)c3cc(OCCCCO)c(C)cc3O1)O2 (racemic) | 235 to 236 °C | – | – | –
C=CCOc1cc2c(cc1C)OC1(CC(C)(C)c3cc(O)c(C)cc3O1)CC2(C)C (racemic) | 143 to 144 °C | – | – | –
Cc1cc2c(cc1O)C(C)(C)CC1(CC(C)(C)c3cc(OCCO)c(C)cc3O1)O2 (racemic) [Example 1, (±)-6′-Hydroxy-6-(2-hydroxyethoxy)-4,4,4′,4′,7,7′-hexamethyl-2,2′-spirobichroman] | 186 to 188 °C | 0% | < 20% | 20%
Cc1cc(C)n(CCOc2cc3c(cc2C)OC2(CC(C)(C)c4cc(O)c(C)cc4O2)CC3(C)C)n1 (racemic) [Example 2, (±)-6′-Hydroxy-6-[2-(3,5-dimethyl-1H-pyrazol-1-yl)ethoxy]-4,4,4′,4′,7,7′-hexamethyl-2,2′-spirobichroman] | – | 12% | < 20% | 9%
Cc1cc2c(cc1O)C(C)(C)CC1(CC(C)(C)c3cc(OCCCO)c(C)cc3O1)O2 (racemic) [Example 3, (±)-6′-Hydroxy-6-(3-hydroxypropoxy)-4,4,4′,4′,7,7′-hexamethyl-2,2′-spirobichroman] | 175 to 177 °C | 13% | 20 to 40% | 53%
Cc1cc2c(cc1O)C(C)(C)CC1(CC(C)(C)c3cc(OCCCn4cccn4)c(C)cc3O1)O2 (racemic) [Example 4, (±)-6′-Hydroxy-6-[3-(1H-pyrazol-1-yl)propoxy]-4,4,4′,4′,7,7′-hexamethyl-2,2′-spirobichroman] | – | 0% | < 20% | 44%
Cc1cc2c(cc1O)C(C)(C)CC1(CC(C)(C)c3cc(OC[C@@H](O)CO)c(C)cc3O1)O2 (mixture of isomers) [Example 5, (±)-6′-Hydroxy-6-[2(S),3-dihydroxypropoxy]-4,4,4′,4′,7,7′-hexamethyl-2,2′-spirobichroman] | 218 to 220 °C | 11% | 20 to 40% | 3%
Cc1cc2c(cc1O)C(C)(C)CC1(CC(C)(C)c3cc(OCCCn4ccnc4)c(C)cc3O1)O2 (racemic) [Example 6, (±)-6′-Hydroxy-6-[3-(1H-imidazol-1-yl)propoxy]-4,4,4′,4′,7,7′-hexamethyl-2,2′-spirobichroman] | 209 to 211 °C | 5% | – | 24%
Cc1cc2c(cc1O)C(C)(C)CC1(CC(C)(C)c3cc(OC(C)(C)C(=O)O)c(C)cc3O1)O2 (racemic) [Example 8, (±)-(6′-Hydroxy-4,4,4′,4′,7,7′-hexamethyl-2,2′-spirobichroman-6-yloxy)-dimethylacetic acid] | – | 25% | > 40% | 42%
Cc1cc2c(cc1O)C(C)(C)C[C@]1(CC(C)(C)c3cc(OC(C)(C)C(=O)O)c(C)cc3O1)O2 (racemic) [Example 9, (±)-(R)-(6′-Hydroxy-4,4,4′,4′,7,7′-hexamethyl-2,2′-spirobichroman-6-yloxy)-dimethylacetic acid] | – | – | > 40% | –
Cc1cc2c(cc1O)C(C)(C)CC1(CC(C)(C)c3cc(OC(C)(C)CO)c(C)cc3O1)O2 (racemic) [Example 11, (±)-6-(2-Hydroxy-1,1-dimethyl-ethoxy)-6′-hydroxy-4,4,4′,4′,7,7′-hexamethyl-2,2′-spirobichroman] | 188 to 189 °C | – | < 20% | –
Cc1cc2c(cc1O)C(C)(C)CC1(CC(C)(C)c3cc(OCC(N)=O)c(C)cc3O1)O2 (racemic) [Example 14, (±)-(6′-Hydroxy-4,4,4′,4′,7,7′-hexamethyl-2,2′-spirobichroman-6-yloxy)-acetamide] | 220 to 221 °C | – | < 20% | –
Cc1cc2c(cc1O)C(C)(C)CC1(CC(C)(C)c3cc(OCCCn4nc(CO)cc4C)c(C)cc3O1)O2 (racemic) [Example 17, (±)-6′-Hydroxy-6-[3-(3-hydroxymethyl-5-methyl-1H-pyrazol-1-yl)propoxy]-4,4,4′,4′,7,7′-hexamethyl-2,2′-spirobichroman] | 217 to 219 °C | – | 20 to 40% | –
Cc1cc(CO)n(CCCOc2cc3c(cc2C)OC2(CC(C)(C)c4cc(O)c(C)cc4O2)CC3(C)C)n1 (racemic) [Example 18, (±)-6′-Hydroxy-6-[3-(5-hydroxymethyl-3-methyl-1H-pyrazol-1-yl)propoxy]-4,4,4′,4′,7,7′-hexamethyl-2,2′-spirobichroman] | 208 to 210 °C | 5% | – | 41%
Cc1cc2c(cc1O)C(C)(C)CC1(CC(C)(C)c3cc(OCC(C)(C)O)c(C)cc3O1)O2 (racemic) [Example 19, (±)-6′-Hydroxy-6-(2-hydroxy-2-methylpropoxy)-4,4,4′,4′,7,7′-hexamethyl-2,2′-spirobichroman] | – | – | < 20% | –
COc1cc2c(cc1C)OC1(CC2(C)C)CC(C)(C)c2cc(OCC(=O)O)c(C)cc2O1 (racemic) [Example 20, (±)-(6′-Methoxy-4,4,4′,4′,7,7′-hexamethyl-2,2′-spirobichroman-6-yloxy)-acetic acid] | 195 to 197 °C | – | < 20% | –
C=CCc1c(O)c(C)cc2c1C(C)(C)CC1(CC(C)(C)c3cc(O)c(C)cc3O1)O2 (racemic) [Example 22, (±)-6,6′-Dihydroxy-5-allyl-4,4,4′,4′,7,7′-hexamethyl-2,2′-spirobichroman] | 102 to 104 °C | – | < 20% | –
C=CCc1c(O)c(C)cc2c1C(C)(C)CC1(CC(C)(C)c3c(cc(C)c(O)c3CC=C)O1)O2 (racemic) [Example 23, (±)-6,6′-Dihydroxy-5,5′-diallyl-4,4,4′,4′,7,7′-hexamethyl-2,2′-spirobichroman] | 95 to 97 °C | – | < 20% | –
Cc1cc2c(cc1O)C(C)(C)CC1(CC(C)(C)c3cc(O)c(C)cc3O1)O2 (racemic) [Example 24, (±)-6,6′-Dihydroxy-4,4,4′,4′,7,7′-hexamethyl-2,2′-spirobichroman] | – | 51% | 20 to 40% | 65%
Cc1cc2c(cc1O)C(C)(C)CC1(CC(C)(C)c3cc(OCC(=O)OCc4ccccc4)c(C)cc3O1)O2 (racemic) [Example 25, (±)-(6′-Hydroxy-4,4,4′,4′,7,7′-hexamethyl-2,2′-spirobichroman-6-yloxy)-acetic acid Benzyl Ester] | 60 to 65 °C | – | – | –
Cc1cc2c(cc1O)C(C)(C)CC1(CC(C)(C)c3cc(OCC(=O)O[C@@H]4C[C@H](C)CC[C@H]4C(C)(C)c4ccccc4)c(C)cc3O1)O2 (mixture of isomers) [Example 26, (±)-(6′-Hydroxy-4,4,4′,4′,7,7′-hexamethyl-2,2′-spirobichroman-6-yloxy)-acetic acid 5(R)-Methyl-2(S)-(1-methyl-1-phenylethyl)-1(R)-cyclohexyl Ester] | 88 to 93 °C | – | – | –
Cc1cc2c(cc1O)C(C)(C)CC1(CC(C)(C)c3cc(O)c(C)cc3O1)O2 (single isomer, unassigned) [Example 28] | – | – | 20 to 40% | –
Cc1cc2c(cc1O)C(C)(C)CC1(CC(C)(C)c3cc(OC(C)(C)C(=O)O)c(C)cc3O1)O2 (stereo in doubt) [Example 10, (−)-(S)-(6′-Hydroxy-4,4,4′,4′,7,7′-hexamethyl-2,2′-spirobichroman-6-yloxy)-dimethylacetic acid] | – | – | < 20% | –
C=CCOc1cc2c(cc1C)OC1(CC2(C)C)CC(C)(C)c2cc(OCC=C)c(C)cc2O1 [Example 16, (±)-6,6′-Bisallyloxy-4,4,4′,4′,7,7′-hexamethyl-2,2′-spirobichroman] | 98 to 100 °C | – | – | –
Cc1cc2c(cc1O)C(C)(C)CC1(CC(C)(C)c3cc(O)c(C)cc3O1)O2 [Example 27, (−)-(S)-6,6′-dihydroxy-4,4,4′,4′,7,7′-hexamethyl-2,2′-spirobichroman] | 165 to 166 °C | – | > 40% | –
